Test results taken from paper PMC5623949, “Exploiting the 2-Amino-1,3,4-thiadiazole Scaffold To Inhibit Trypanosoma brucei Pteridine Reductase in Support of Early-Stage Drug Discovery” (ACS Omega, 2017).
Where two headings read alike, the source gives them in different places.

Experiments:
hERG = biological target: T1, hERG (Homo sapiens, UniProt Q12809); set-up: hERG inhibition liability assay
T1 construct: gene KCNH2
Procedure: (§1) Independent of the effect of any antiparasitic potential of compounds, they were evaluated using a panel of early-toxicity assays comprising cytotoxicity (A549, human lung adenocarcinoma epithelial cell line and WI-38, human lung fibroblasts), mitochondrial toxicity (786-O, human renal carcinoma cell line), hERG inhibition,[31] cytochrome P450 inhibition (CYP1A2, CYP2C9, CYP2C19, CYP2D6, and CYP3A4),[31] and Aurora B kinase inhibition. […] For the two compounds active against TbPTR1 (4m and 4o), IC50 against hERG, cytochrome P450, and mitochondrial toxicity were determined (reported in Supporting Information). We observed that the dose of compounds 4m, 4o, 4c, and 3k was 4 μM in the potentiation assays. […] In the case of hERG, CYP2D6, CYP2A9, CYP2C19, and mitochondrial toxicity, there is a selectivity index of around 3–4 fold, thus showing an acceptable profile.  Figure 10 Summary heat map of the in vitro assays to determine possible liability issues for all synthesized compounds. Assays were performed to assess inhibition of hERG and five CYP isoforms (1A2, 2C9, 2C19, 2D6, and 3A4), growth inhibition of A549 and W1-38 cell lines, and mitochondrial toxicity at 10 μM. The hDHFR inhibition was determined at 100 μM. The data, expressed as percentage values, were organized by adopting a color code for rapid and intuitive visualization. The ideal compound should have all tiles blue, indicating a safe toxicological profile for progressing into the development pipeline. The cells are colored from blue (100% of cell growth at the tested concentration) to red (0% of cell growth at the tested concentration) for A549 and W1-38 and from blue (0% of inhibitory activity at the tested concentration) to red (100% of inhibitory activity at the tested concentration) for CYP isoforms, hERG, hDHFR, and mitochondrial toxicity.

in vitro [1] = experiment: in vitro; set-up: cytotoxicity, per cent cell growth of WI-38 fibroblasts; details: human, wi-38 cells; read-out: % cell growth W1-38 at 10uM
Procedure: as §1

TbPTR1 = biological target: T2, TbPTR1 (Trypanosoma brucei brucei, UniProt O76290); experiment: biochemical; details: 50 μM compound; for inhibition at 50 µM: read-out: % Inhibition TbPTR1 at 50 μM
T2 construct: made in house
T2 sequence (O76290 1-268): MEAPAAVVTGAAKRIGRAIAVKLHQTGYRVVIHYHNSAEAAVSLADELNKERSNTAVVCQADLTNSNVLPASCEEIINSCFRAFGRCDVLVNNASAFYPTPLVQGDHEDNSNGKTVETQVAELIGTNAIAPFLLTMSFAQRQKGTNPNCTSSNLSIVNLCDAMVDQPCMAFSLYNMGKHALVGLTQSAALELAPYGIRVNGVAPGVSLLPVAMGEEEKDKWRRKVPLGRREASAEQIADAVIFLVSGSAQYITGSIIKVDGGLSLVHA

[2] = system: T. b. brucei Lister 427 bloodstream forms; experiment: In vitro activity against T. brucei (HTS SYBR Green I growth inhibition assay); assay type: cell-based, Trypanosoma brucei brucei; details: Trypanosoma brucei, standard deviation within ±10% of the value; for inhibition at 50 µM: read-out: % Inhibition T. brucei at 50 μM
in vitro [3] = experiment: in vitro; set-up: cytotoxicity, per cent cell growth of A549 cells; details: human, a549 cells; read-out: % cell growth A549 at 10uM
Procedure: as §1

CYP1A2 = biological target: T3, CYP1A2 (Homo sapiens, UniProt P05177); experiment: in vitro; set-up: cytochrome P450 isoform inhibition liability assay
T3 sequence (P05177 1-516): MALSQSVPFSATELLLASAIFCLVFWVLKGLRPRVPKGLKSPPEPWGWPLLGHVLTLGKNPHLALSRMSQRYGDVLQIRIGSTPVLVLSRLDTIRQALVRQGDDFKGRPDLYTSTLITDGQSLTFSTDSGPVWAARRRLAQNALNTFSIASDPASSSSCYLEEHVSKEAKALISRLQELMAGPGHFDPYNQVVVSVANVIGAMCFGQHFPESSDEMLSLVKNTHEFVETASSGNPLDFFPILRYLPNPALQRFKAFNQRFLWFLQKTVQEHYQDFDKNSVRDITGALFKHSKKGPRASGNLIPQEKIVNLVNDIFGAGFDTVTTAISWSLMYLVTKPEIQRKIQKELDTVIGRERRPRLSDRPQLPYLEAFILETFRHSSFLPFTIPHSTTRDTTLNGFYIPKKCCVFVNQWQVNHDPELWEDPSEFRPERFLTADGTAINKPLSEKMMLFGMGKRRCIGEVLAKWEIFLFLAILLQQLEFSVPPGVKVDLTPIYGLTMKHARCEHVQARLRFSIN
Procedure: as §1

CYP2C9 = CYP2C9 (Homo sapiens, UniProt P11712); experiment: in vitro; set-up: cytochrome P450 isoform inhibition liability assay
Procedure: as §1

CYP2D6 = CYP2D6 (Homo sapiens, UniProt P10635); experiment: in vitro; set-up: cytochrome P450 isoform inhibition liability assay
Procedure: as §1

CYP2C19 = CYP2C19 (Homo sapiens, UniProt P33261); experiment: in vitro; set-up: cytochrome P450 isoform inhibition liability assay
Procedure: as §1

CYP3A4 = CYP3A4 (Homo sapiens, UniProt P08684); experiment: in vitro; set-up: cytochrome P450 isoform inhibition liability assay
Procedure: as §1

786-O = experiment: cells; set-up: mitochondrial toxicity in 786-O renal carcinoma cells; details: Homo sapiens, 786-0; mitochondrial toxicity
Procedure: as §1

T1 sequence (Q12809 whole entry): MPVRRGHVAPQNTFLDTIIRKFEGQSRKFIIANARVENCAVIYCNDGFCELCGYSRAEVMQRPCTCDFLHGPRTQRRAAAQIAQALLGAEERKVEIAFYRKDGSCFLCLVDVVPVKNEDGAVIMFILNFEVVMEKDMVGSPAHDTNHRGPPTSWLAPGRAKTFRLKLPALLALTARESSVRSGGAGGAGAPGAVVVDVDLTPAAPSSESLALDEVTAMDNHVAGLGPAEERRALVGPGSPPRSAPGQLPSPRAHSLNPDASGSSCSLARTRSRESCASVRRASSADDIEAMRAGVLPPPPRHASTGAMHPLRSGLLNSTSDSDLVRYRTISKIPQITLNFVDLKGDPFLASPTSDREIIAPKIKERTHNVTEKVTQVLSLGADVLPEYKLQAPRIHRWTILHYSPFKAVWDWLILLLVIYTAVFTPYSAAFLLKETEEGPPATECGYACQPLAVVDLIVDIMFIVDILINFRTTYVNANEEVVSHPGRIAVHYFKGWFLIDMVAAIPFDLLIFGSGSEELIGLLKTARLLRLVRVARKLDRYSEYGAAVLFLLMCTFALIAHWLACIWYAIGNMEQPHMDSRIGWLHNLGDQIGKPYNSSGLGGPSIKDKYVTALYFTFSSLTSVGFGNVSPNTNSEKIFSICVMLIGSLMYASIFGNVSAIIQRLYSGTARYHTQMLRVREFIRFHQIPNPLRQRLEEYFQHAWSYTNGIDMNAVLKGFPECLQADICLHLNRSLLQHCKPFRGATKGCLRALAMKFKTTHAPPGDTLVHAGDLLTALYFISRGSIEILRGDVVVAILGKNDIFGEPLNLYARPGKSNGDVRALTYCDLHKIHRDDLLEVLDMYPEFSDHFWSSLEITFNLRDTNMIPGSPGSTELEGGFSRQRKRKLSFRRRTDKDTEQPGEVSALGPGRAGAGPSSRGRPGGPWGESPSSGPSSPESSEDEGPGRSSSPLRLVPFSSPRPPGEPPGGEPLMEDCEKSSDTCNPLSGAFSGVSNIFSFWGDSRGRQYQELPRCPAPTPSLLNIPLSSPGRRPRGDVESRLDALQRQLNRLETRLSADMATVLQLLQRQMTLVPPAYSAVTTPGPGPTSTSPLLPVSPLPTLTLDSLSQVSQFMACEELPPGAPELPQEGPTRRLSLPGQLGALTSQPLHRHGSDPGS
Chain of CYP3A4 (P08684 whole entry, canonical isoform): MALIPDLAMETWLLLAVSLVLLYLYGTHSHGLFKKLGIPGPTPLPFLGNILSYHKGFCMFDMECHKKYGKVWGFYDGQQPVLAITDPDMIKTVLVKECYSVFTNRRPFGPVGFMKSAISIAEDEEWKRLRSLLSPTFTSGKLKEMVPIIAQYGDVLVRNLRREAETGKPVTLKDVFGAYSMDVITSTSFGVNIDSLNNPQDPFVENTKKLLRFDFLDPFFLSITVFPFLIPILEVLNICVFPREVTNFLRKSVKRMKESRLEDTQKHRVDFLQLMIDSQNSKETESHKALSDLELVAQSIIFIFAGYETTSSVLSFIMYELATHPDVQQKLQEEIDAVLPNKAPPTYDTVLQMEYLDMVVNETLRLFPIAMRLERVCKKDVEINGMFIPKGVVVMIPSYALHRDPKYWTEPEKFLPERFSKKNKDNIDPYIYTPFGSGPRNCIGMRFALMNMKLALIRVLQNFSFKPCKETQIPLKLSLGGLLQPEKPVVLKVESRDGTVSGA
Chain of CYP2D6 (P10635 whole entry, canonical isoform): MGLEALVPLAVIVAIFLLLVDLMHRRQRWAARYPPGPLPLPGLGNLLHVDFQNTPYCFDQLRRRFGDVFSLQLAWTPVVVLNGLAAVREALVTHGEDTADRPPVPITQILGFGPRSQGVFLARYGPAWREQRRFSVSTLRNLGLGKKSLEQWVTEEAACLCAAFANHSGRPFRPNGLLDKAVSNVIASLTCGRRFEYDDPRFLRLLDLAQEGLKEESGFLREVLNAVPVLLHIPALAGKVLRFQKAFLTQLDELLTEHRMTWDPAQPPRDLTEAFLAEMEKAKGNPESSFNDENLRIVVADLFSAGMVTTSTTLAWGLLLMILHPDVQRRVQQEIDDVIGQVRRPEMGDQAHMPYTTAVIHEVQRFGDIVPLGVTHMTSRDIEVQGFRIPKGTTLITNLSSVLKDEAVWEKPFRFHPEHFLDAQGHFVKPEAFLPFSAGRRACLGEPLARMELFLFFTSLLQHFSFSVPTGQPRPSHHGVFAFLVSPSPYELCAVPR
Chain of CYP2C9 (P11712 whole entry, canonical isoform): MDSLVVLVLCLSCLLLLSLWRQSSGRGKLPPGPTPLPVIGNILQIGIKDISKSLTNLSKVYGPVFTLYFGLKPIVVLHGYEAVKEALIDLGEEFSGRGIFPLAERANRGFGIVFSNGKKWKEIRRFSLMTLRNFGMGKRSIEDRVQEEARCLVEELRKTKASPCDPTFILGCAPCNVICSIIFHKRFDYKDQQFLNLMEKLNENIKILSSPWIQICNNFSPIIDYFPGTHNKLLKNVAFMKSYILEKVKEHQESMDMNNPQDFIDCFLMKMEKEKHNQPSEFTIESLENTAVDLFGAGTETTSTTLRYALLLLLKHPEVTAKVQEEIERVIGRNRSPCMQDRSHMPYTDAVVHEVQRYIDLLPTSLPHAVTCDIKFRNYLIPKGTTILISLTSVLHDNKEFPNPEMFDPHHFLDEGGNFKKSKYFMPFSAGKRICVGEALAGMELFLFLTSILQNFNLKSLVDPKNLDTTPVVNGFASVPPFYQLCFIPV
Chain of CYP2C19 (P33261 whole entry, canonical isoform): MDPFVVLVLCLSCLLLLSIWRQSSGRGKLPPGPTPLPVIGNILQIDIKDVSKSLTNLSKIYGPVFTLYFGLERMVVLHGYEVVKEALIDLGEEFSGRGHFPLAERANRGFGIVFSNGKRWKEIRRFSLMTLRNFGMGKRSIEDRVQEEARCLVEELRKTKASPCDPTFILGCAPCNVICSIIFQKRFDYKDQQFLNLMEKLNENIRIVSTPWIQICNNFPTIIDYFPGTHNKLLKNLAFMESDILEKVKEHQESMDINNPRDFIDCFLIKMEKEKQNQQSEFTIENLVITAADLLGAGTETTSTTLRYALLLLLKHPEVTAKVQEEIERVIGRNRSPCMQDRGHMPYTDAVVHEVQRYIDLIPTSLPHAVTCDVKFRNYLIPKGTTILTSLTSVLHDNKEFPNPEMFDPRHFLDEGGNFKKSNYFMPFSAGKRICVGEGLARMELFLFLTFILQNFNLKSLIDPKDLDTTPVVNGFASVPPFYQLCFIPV

| SMILES | inhibition at 10 µM (hERG) [%] | viability at 10 µM (in vitro [1]) [%] | inhibition at 50 µM (TbPTR1) [%] | inhibition at 50 µM [2] [%] | viability at 10 µM (in vitro [3]) [%] | inhibition at 10 µM (CYP1A2) [%] | inhibition at 10 µM (CYP2C9) [%] | inhibition at 10 µM (CYP2D6) [%] | inhibition at 10 µM (CYP2C19) [%] | inhibition at 10 µM (CYP3A4) [%] | inhibition at 10 µM (786-O) [%] | % Inhibition TbPTR1 at 50 μM (TbPTR1) | EC50 ([2]; read-out: EC50 T. brucei) [nM] |
| --- | --- | --- | --- | --- | --- | --- | --- | --- | --- | --- | --- | --- | --- |
| Nc1nnc(Cc2cccc([N+](=O)[O-])c2)s1 [3c] | -1.8 ± 0.6 | 88.4 ± 11.1 | 15.8 ± 0.5 | 0.8 | 117 ± 3.5 | -10.9 ± 1.6 | -8.8 ± 3 | -38.6 ± 16.3 | -36.1 ± 11.8 | -16.9 ± 5.2 | -4.11 ± 5.77 | – | – |
| Nc1nnc(Cc2cccs2)s1 [3d] | 16 ± 8.7 | 105 ± 20.6 | 18.5 ± 0.6 | 7.5 | 112 ± 4.9 | 21.7 ± 3.4 | 16 ± 2 | 29.6 ± 4 | -17.4 ± 7.4 | 17.2 ± 4.1 | -2.9 ± 14.3 | – | – |
| NCc1ccc(-c2nnc(N)s2)cc1 [1b] | 5.7 ± 3.9 | 98.7 ± 11.4 | 7.7 ± 0.6 | 93 | 114 ± 1.2 | -5.3 ± 10.2 | -7.9 ± 0.8 | -44.2 ± 10.4 | -17.9 ± 3.7 | 23.7 ± 2.2 | 4.5 ± 2.5 | did not show inhibition | 800 |
| COCCCNc1nnc(N)s1 [4s, N2G(3Gmethoxypropyl)G1,3,4GthiadiazoleG2,5Gdiamine] | 3.9 ± 5.4 | 89.6 ± 8.9 | 11.8 ± 0.3 | < 0 | 101 ± 11.2 | -14.8 ± 3.7 | -15.5 ± 7.2 | -13.5 ± 10.7 | -20 ± 13.9 | -37.5 ± 15.3 | -0.9 ± 11.9 | – | – |
| Nc1nnc(CCc2ccccc2)s1 [3g] | -1.9 ± 1.3 | 101 ± 17.5 | 7.6 ± 0.3 | < 0 | 109 ± 13.4 | -14.9 ± 5.7 | -10.5 ± 3.7 | -43.9 ± 4.1 | -36.5 ± 6.1 | -25.6 ± 10.5 | 4 ± 16.1 | – | – |
| CN(C)C(=O)NCc1ccc(-c2nnc(N)s2)cc1 [1p] | 6.4 ± 1.9 | 118 ± 24.8 | 5.3 ± 0.9 | < 0 | 108.7 ± 0.45 | 20.9 ± 3.3 | 36.6 ± 0.6 | 18.5 ± 2.7 | 9.4 ± 6.5 | 15.1 ± 9.9 | 11.6 ± 10.1 | – | – |
| Nc1nnc(-c2ccccc2)s1 [1a] | -3.3 ± 1.9 | 101 ± 10.3 | 25.3 ± 1.2 | 21 | 119 ± 12.5 | 24.8 ± 1.8 | 3.9 ± 2.9 | -8.5 ± 2.2 | 76.9 ± 3.2 | 82.6 ± 1.6 | 0.9 ± 10.6 | – | – |
| Cc1ccc(CNc2nnc(N)s2)cc1 [4l] | 77.4 ± 1.5 | 106 ± 13.2 | 18.6 ± 0.8 | 10.8 | 104.6 ± 0.5 | 17.3 ± 3.2 | 14.2 ± 3.9 | 98.7 ± 1 | -6.7 ± 11.4 | 26.9 ± 4.7 | -5.3 ± 14.7 | – | – |
| Nc1nnc(CCC(=O)c2ccccc2)s1 [3j] | -2.3 ± 10.2 | 113 ± 8 | 12.9 ± 0.7 | 1.2 | 138 ± 8.8 | -13.4 ± 12.3 | -30.6 ± 6.8 | -30.6 ± 5.9 | -35.4 ± 6.6 | -22.9 ± 7.1 | – | – | – |
| Nc1nnc(-c2cccc([N+](=O)[O-])c2)s1 [1k] | 7 ± 5.8 | 108 ± 16.8 | 15.6 ± 1.1 | 1.4 | 113 ± 1.9 | 31.1 ± 2.7 | 12.5 ± 6.8 | -49.3 ± 17.6 | -28.3 ± 17.9 | -14.2 ± 13.2 | -5.7 ± 12.9 | – | – |
| Nc1nnc(Cc2ccc3ccccc3c2)s1 [3e] | -5.6 ± 3.5 | 105 ± 38.5 | 20.9 ± 0.3 | 0.4 | 141 ± 5.6 | 0.4 ± 1.3 | -47.8 ± 3.9 | -31.7 ± 1.7 | -54.9 ± 9.3 | -3.2 ± 3.8 | 4.3 ± 8.6 | – | – |
| Nc1nnc(-c2ccc(-c3ccccc3)cc2)s1 [2a] | – | 90.7 ± 4.9 | 10.8 ± 0.4 | 43.1 | 142 ± 7.3 | 98.9 ± 0.4 | 76.7 ± 0.5 | 45.4 ± 3.1 | 95.8 ± 0.7 | 50.6 ± 3.7 | 11.1 ± 4.1 | – | – |
| Nc1nnc(NCc2ccccc2Cl)s1 [4d] | 15.2 ± 3.6 | 55.4 ± 2.4 | 21.8 ± 2.2 | < 0 | 115 ± 8.9 | 28.2 ± 1.2 | 13.9 ± 3.5 | 90.3 ± 0.9 | -13.3 ± 10.3 | 10.1 ± 10.7 | -1.6 ± 9.3 | – | – |
| Cc1nnc(N)s1 [3a] | 8.2 ± 6.6 | 130 ± 5.8 | 5.4 ± 0.7 | < 0 | 130 ± 19.1 | -6.6 ± 2.1 | -10.9 ± 5 | -46 ± 4.5 | -35.5 ± 2.4 | -22.3 ± 9 | -4.4 ± 14.3 | – | – |
| COc1cc(-c2nnc(N)s2)cc(OC)c1OC [1e] | 1 ± 1.9 | 105 ± 22.3 | 13.5 ± 0.4 | 1.4 | 114 ± 6.2 | 2.55 ± 3.9 | -12.4 ± 3.9 | -37.2 ± 7.9 | -18.5 ± 3.7 | -11.2 ± 10.3 | – | – | – |
| CN(C)C(=O)NCc1cccc(-c2nnc(N)s2)c1 [1q] | – | – | 2.5 ± 0.2 | 1.2 | – | 7 ± 1.9 | 19.7 ± 3.6 | 20.4 ± 3.5 | 19.6 ± 8.2 | 4.5 ± 11.4 | – | – | – |
